Where only a bound is given, the exact number is not on record here.

For this assay, the target named is T1, KHK (Homo sapiens, UniProt P50053).
T1 construct: His tag; made in house; host or cells: E. coli
T1 sequence (P50053 1-298): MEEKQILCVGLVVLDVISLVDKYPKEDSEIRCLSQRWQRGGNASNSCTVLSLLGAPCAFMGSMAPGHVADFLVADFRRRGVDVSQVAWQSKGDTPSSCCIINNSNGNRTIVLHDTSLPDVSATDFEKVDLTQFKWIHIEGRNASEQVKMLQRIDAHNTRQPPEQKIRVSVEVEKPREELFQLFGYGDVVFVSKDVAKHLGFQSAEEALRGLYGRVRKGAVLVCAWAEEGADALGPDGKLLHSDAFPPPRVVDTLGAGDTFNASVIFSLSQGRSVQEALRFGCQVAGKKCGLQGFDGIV
The assay is described as follows: Measurement of in vitro activity of KHK inhibitor (Transcreener ADP2 TR-FRET Red Assay). The class given is biochemical. The following applies: purified His-tagged KHK expressed in E. coli; 30 min preincubation with inhibitor, 15 min substrate reaction; Morrison equation. As for the experimental part:
KHK was expressed in E. coli, and purified using a His tag. To measure the activity of the purified KHK, a Transcreener ADP2 TR-FRET Red Assay kit of BellBrook Labs was used. The Transcreener ADP2 TR-FRET Red Assay kit is a method of measuring an amount of generated ADP using TR-FRET after proper concentrations of KHK and ATP, and a fructose-containing solution were reacted for 15 minutes. To measure the activity of a KHK inhibitor, KHK and a proper concentration of an inhibitor were first reacted for 30 minutes, and reacted with a solution containing a KHK substrate for 15 minutes. In addition, after the TR-FRET reaction for 1 hour, fluorescence was measured using an Envision apparatus of PerkinElmer. A setting value of the Envision apparatus was determined according to the TR-FRET optimization procedures published by BellBrook Labs.
The resulting value for each concentration of the KHK inhibitor is determined a ratio of a 665-nm wavelength and a 615-nm wavelength. Here, the 665/615 ratio was converted to an ADP concentration based on an ADP standard curve, and the inhibitory activity, a Ki value, was obtained using the Morrison equation in statistical software (Prizm).
On the technique in general: Time-resolved FRET reads energy transfer from a long-lived donor to a nearby acceptor.
In the case of `O=C(O)C[C@@H]1[C@H]2CN(c3nc(N4CCCC4)nc4c3CCCC4(F)F)C[C@@H]12` [Example 12, 2-((1R,5S,6S)-3-(8,8-difluoro-2-(pyrrolidin-1-yl)-5,6,7,8-tetrahydroquinazolin-4-yl)-3-azabicyclo[3.1.0]hexan-6-yl)acetic acid], the Ki (as a rule, the equilibrium dissociation constant of an inhibitor or competing ligand from its target) fell in the range of 100 to 1000 nM.

For the compound `C[C@H]1CCN1c1nc(N2C[C@@H]3[C@@H](CC(=O)O)[C@@H]3C2)c2c(n1)C(F)(F)CCC2` [Example 11, 2-((1R,5S,6S)-3-(8,8-difluoro-2-((S)-2-methylazetidin-1-yl)-5,6,7,8-tetrahydroquinazolin-4-yl)-3-azabicyclo[3.1.0]hexan-6-yl)acetic acid], the Ki is ≤ 100 nM. `C[C@@H]1OCc2c1nc(N1CC[C@@H]1C)nc2N1C[C@@H]2[C@@H](CC(=O)O)[C@@H]2C1` [Example 7, 2-((1R,5S,6S)-3-((S)-7-methyl-2-((S)-2-methylazetidin-1-yl)-5,7-dihydrofuro[3,4-d]pyrimidin-4-yl)-3-azabicyclo[3.1.0]hexan-6-yl)acetic acid]: the Ki was in the range of 100 to 1000 nM. Turning to `C[C@H]1CCN1c1nc(N2C[C@@H]3[C@@H](CC(=O)O)[C@@H]3C2)c2c(n1)C(F)(F)CC2` [Example 9, 2-((1R,5S,6S)-3-(7,7-difluoro-2-((S)-2-methylazetidin-1-yl)-6,7-dihydro-5H-cyclopenta[d]pyrimidin-4-yl)-3-azabicyclo[3.1.0]hexan-6-yl)acetic acid], the Ki is ≤ 100 nM. For the compound `C[C@H]1CCN1c1nc(N2CC3CC(C2)C3CC(=O)O)c2c(c1C#N)CCCCC2` (stereo partly drawn) [Example 3, 2-(3-(4-cyano-3-((S)-2-methylazetidin-1-yl)-6,7,8,9-tetrahydro-5H-cyclohepta[c]pyridin-1-yl)-3-azabicyclo[3.1.1]heptan-6-yl)acetic acid], the Ki was ≤ 100 nM. Take `C[C@H]1CCN1c1nc(N2C[C@H]3C[C@@H](C2)[C@@H]3CC(=O)O)c2c(n1)C(F)(F)CC2` [Example 8, 2-((1R,5S,6S)-3-(7,7-difluoro-2-((S)-2-methylazetidin-1-yl)-6,7-dihydro-5H-cyclopenta[d]pyrimidin-4-yl)-3-azabicyclo[3.1.1]heptan-6-yl)acetic acid]: the Ki is ≤ 100 nM.

`C[C@H]1CCN1c1nc(N2CC3CC(C2)C3CC(=O)O)c2c(n1)C(C)(C)OC2` (stereo partly drawn) [Example 5, 2-(3-(7,7-dimethyl-2-((S)-2-methylazetidin-1-yl)-5,7-dihydrofuro[3,4-d]pyrimidin-4-yl)-3-azabicyclo[3.1.1]heptan-6-yl)acetic acid] yielded a Ki of 100 to 1000 nM. On to `C[C@H]1CCN1c1nc(N2C[C@H]3C[C@@H](C2)[C@@H]3CC(=O)O)c2c(n1)C(F)(F)CCC2` [Example 10, 2-((1R,5S,6S)-3-(8,8-difluoro-2-((S)-2-methylazetidin-1-yl)-5,6,7,8-tetrahydroquinazolin-4-yl)-3-azabicyclo[3.1.1]heptan-6-yl)acetic acid], for which the Ki was ≤ 100 nM. Consider `C[C@H]1CCN1c1nc(N2C[C@H]3C[C@@H](C2)[C@@H]3CC(=O)O)c2c(c1C#N)CCOC2` [Example 4, 2-((1R,5S,6S)-3-(5-cyano-6-((S)-2-methylazetidin-1-yl)-3,4-dihydro-1H-pyrano[3,4-c]pyridin-8-yl)-3-azabicyclo[3.1.1]heptan-6-yl)acetic acid], for which the Ki is ≤ 100 nM. For the compound `C[C@H]1CCN1c1nc(N2C[C@H]3C[C@@H](C2)[C@@H]3CC(=O)O)c2c(c1C#N)CCCC2` [Example 2, 2-((1R,5S,6S)-3-(4-cyano-3-((S)-2-methylazetidin-1-yl)-5,6,7,8-tetrahydroisoquinolin-1-yl)-3-azabicyclo[3.1.1]heptan-6-yl)acetic acid], the Ki is ≤ 100 nM.

Regarding `C[C@H]1CCN1c1nc(N2C[C@H]3C[C@@H](C2)[C@@H]3CC(=O)O)c2c(c1C#N)CCC2` [Example 1, 2-((1R,5S,6S)-3-(4-cyano-3-((S)-2-methylazetidin-1-yl)-6,7-dihydro-5H-cyclopenta[c]pyridin-1-yl)-3-azabicyclo[3.1.1]heptan-6-yl)acetic acid], the Ki is ≤ 100 nM. In turn, `C[C@@H]1OCc2c1nc(N1CC[C@@H]1C)nc2N1C[C@H]2C[C@@H](C1)[C@@H]2CC(=O)O` [Example 6, 2-((1R,5S,6S)-3-((S)-7-methyl-2-((S)-2-methylazetidin-1-yl)-5,7-dihydrofuro [3,4-d]pyrimidin-4-yl)-3-azabicyclo[3.1.1]heptan-6-yl)acetic acid] returned a Ki of 100 to 1000 nM.
